Test results from patent US20060128695A1, “Cyclic nucleotide phosphodiesterase inhibitors, preparation and uses” (NEURO3D, priority 2002, published 2006).
Where a name gives a salt, the structure may show the parent alone. Read-outs that look alike come from different tables or passages of the source.

What was measured:
Assay type in all cases: biochemical, bovine
PDE2 = target: T1, PDE2 (Bos taurus, UniProt P14099); test: Inhibition of PDE2, radioenzymatic phosphodiesterase assay; conditions: for inhibition at 10 µM: read-out: PDE2 percentage inhibition at 10 μM
T1 construct: PDE2 was prepared from bovine endothelial cells by the same methods; endogenous in cells; host or cells: bovine endothelial cells
T1 sequence (P14099 1-921): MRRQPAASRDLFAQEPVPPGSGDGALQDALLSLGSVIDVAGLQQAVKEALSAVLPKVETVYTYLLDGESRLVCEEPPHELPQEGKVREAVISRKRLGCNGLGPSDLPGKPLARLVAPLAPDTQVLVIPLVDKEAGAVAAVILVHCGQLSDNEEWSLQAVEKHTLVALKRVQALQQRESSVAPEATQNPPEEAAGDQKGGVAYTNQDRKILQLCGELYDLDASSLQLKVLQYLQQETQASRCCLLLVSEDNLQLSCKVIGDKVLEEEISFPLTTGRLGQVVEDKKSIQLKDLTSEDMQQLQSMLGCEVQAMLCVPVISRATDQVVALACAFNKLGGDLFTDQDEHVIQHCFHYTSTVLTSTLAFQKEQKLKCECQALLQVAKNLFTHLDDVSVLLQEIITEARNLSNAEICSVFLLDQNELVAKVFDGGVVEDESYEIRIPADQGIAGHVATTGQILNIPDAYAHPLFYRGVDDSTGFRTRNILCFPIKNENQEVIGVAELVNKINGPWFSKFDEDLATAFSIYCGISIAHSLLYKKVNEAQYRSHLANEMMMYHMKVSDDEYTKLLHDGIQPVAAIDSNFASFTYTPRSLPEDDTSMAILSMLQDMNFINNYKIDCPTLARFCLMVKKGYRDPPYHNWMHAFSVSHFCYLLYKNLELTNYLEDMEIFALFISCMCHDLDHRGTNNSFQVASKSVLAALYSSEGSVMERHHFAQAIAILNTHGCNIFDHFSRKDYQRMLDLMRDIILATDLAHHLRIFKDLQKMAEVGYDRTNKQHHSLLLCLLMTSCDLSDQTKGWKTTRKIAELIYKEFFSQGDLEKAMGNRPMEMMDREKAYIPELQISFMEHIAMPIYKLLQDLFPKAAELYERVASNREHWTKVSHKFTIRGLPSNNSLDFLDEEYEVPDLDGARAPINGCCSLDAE

PDE4 = test: Selectivity: inhibition of PDE4, radioenzymatic phosphodiesterase assay; conditions: vascular smooth muscle; for IC50: cells without % sign; for PDE4 percentage inhibition at 10 μM: 10 μM test compound
Procedure: (§1) A 3 g segment of bovine aortic media cut into pieces with scissors was homogenized with an ultra-turrax then a potter glass/glass homogenizer in 7 volumes by weight of buffer A containing a protease inhibitor cocktail (20 mM Tris-HCl, 0.25 M saccharose, 2 mM magnesium acetate, 1 mM dithiothreitol, 5 mM EGTA, 2000 U/ml aprotinin, 10 mg/l leupeptin and 10 mg/l soya trypsic inhibitor). The homogenizate was centrifuged at 105,000 g for 1 hour. The supernatant was loaded on a DEAE-Sephacel column (15 x 1.6 cm) pre-equilibrated with buffer B (buffer A without the saccharose, EGTA and protease inhibitors). The column was washed until there was no detectable absorption at 280 nm, then eluted with a linear gradient of NaCl (0-0.5 M) in buffer B. 3-ml fractions were collected and enzyme activity was determined under the conditions described hereinbelow to localize the different enzymes PDE1, PDE3, PDE4 and PDE5 which were aliquoted and frozen at −80° C. (Lugnier et al., Biochem. Phamacol., 1986, 35: 1746-1751). PDE2 was prepared from bovine endothelial cells by the same methods (Lugnier and Schini, Biochem. Pharmacol., 1990, 39: 75-84).
(§2) Cyclic nucleotide phosphodiesterase activity was determined by a radioenzymatic method using tritium-labelled cyclic GMP or AMP (1 μM) as substrate (Lugnier et al., 1986). ^3H-labelled adenosine or guanosine monophosphate formed by hydrolysis of the radiolabelled cyclic nucleotide was then converted to ^3H-labelled adenosine or guanosine in a second reaction with […] in excess. The nucleoside formed was separated from the nucleotides by anion exchange chromatography. Nucleoside radioactivity was determined by liquid scintillation counting. Enzymatic incubations were carried out under conditions allowing no more than 15% hydrolysis of the substrate; each point was performed in duplicate.
(§3) The activity of the compounds was evaluated on other phosphodiesterase isoforms, particularly basal state or calmodulin-activated PDEl from vascular smooth muscle, PDE3, PDE4 and PDE5 from vascular smooth muscle.
(§4) The results obtained are presented in Tables 1 and 2 hereinbelow and are expressed as the percentage inhibition of enzymatic activity produced by […] of the test compound.

PDE5 = target: T2, PDE5 (Bos taurus, UniProt Q28156); test: Selectivity: inhibition of PDE5, radioenzymatic phosphodiesterase assay; conditions: 10 μM test compound; vascular smooth muscle; read-out: PDE5 percentage inhibition at 10 μM
T2 construct: localize the different enzymes PDE1, PDE3, PDE4 and PDE5 which were aliquoted and frozen; from tissue; host or cells: bovine aortic media (vascular smooth muscle)
Procedure: as §1, §2, §3, §4

[1] = 10 μM test compound, PDE2 from bovine endothelial cells

CCN1C(=O)C(Cc2ccc(Cl)c(Cl)c2)N=C(c2ccccc2)c2cc(OC)c(OC)cc21 (stereo not drawn) [Compound 7a, 3-(3,4-dichlorobenzyl)-1-ethyl-7,8-dimethoxy-5-phenyl-1,3-dihydro-2H-1,4-benzodiazepin-2-one]
IC50 (PDE2): 3.13 µM | IC50 (PDE4): 6.52 µM

COc1cc2c(cc1OC)N(C)C(=O)CN=C2c1cccc(-c2ccc(C(N)=O)cc2)c1 [Compound 6n, 3′-(7,8-dimethoxy-1-methyl-2-oxo-2,3-dihydro-1H-1,4-benzodiazepin-5-yl)-1,1′-biphenyl-4-carboxamide]
inhibition at 10 µM (PDE2): 84.6% | PDE4 percentage inhibition at 10 μM (PDE4): 58.7%

COc1cc2c(cc1OC)N(C)C(=O)CN=C2c1cccc(C#CCCCC#N)c1 [Compound 6d, 6-[3-(7,8-dimethoxy-1-methyl-2-oxo-2,3-dihydro-1H-1,4-benzodiazepin-5-yl)phenyl]hex-5-ynenitrile]
IC50 (PDE2): 2.4 µM | PDE4 percentage inhibition at 10 μM (PDE4): 55.7%

COc1cc2c(c(Br)c1OC)C(c1cccc(C(N)=O)c1)=NCC(=O)N2C [Compound 5b, 3-(6-bromo-7,8-dimethoxy-1-methyl-2-oxo-2,3-dihydro-1H-1,4-benzodiazepin-5-yl)benzamide]
IC50 (PDE2): 2.1 µM | inhibition at 10 µM (PDE5): 21.6%

COc1cc2c(cc1OC)N(Cc1ccc(C(F)(F)F)cc1)C(=O)CN=C2c1cccc(C#N)c1 [Compound 4i, 3-{7,8-dimethoxy-2-oxo-1-[4-(trifluoromethyl)benzyl]-2,3-dihydro-1H-1,4-benzodiazepin-5-yl}-benzonitrile]
inhibition at 10 µM (PDE2): 15.7%

COc1cccc2c1C(c1cccc(C#N)c1)=NCC(=O)N2 [Compound 28b, 3-(6-methoxy-2-oxo-2,3-dihydro-1H-1,4-benzodiazepin-5-yl)benzonitrile]
IC50 (PDE2): 88 µM | inhibition at 10 µM (PDE2): 34.5%

COc1cc2c(cc1OC)N(C)C(=O)CN=C2c1cccc(-c2ccc(Cl)cc2)c1 [Compound 6j, 5-(4′-chloro-1,1′-biphenyl-3-yl)-7,8-dimethoxy-1-methyl-1,3-dihydro-2H-1,4-benzodiazepin-2-one]
IC50 (PDE2): 0.71 µM | IC50 (PDE4): 2.8 µM

COc1cc2c(cc1OC)N(C)C(=O)CN=C2c1cccc(C=O)c1 [Compound 17l, 5-(3-formylphenyl)-7,8-dimethoxy-1-methyl-1,3-dihydro-1,4-benzodiazepin-2-one]
IC50 (PDE2): 5 µM

COc1cc2c(cc1OC)N(C)C(=O)C(C)N=C2c1cccc(C#N)c1 (stereo not drawn) [Compound 7d, 3-(7,8-dimethoxy-1,3-dimethyl-2-oxo-2,3-dihydro-1H-1,4-benzodiazepin-5-yl)benzonitrile]
inhibition at 10 µM (PDE2): 33.8%

COc1cc2c(cc1OC)-n1ccnc1CN=C2c1cccc(C#N)c1 [Compound 11a, 3-(8,9-dimethoxy-4H-imidazo[1,2-a][1,4]benzodiazepin-6-yl)benzonitrile]
inhibition at 10 µM (PDE2): 43%

CCCN1C(=O)CN=C(c2cccc(C#N)c2)c2cc(OC)c(OC)cc21 [Compound 4l, 3-(7,8-dimethoxy-1-propyl-2-oxo-2,3-dihydro-1H-1,4-benzodiazepin-5-yl)benzonitrile]
inhibition at 10 µM (PDE2): 72.1%

COc1cc2c(cc1OC)N(C)C(=O)CN=C2c1cccc(NC(C)=O)c1 [Compound 17n, N-[3-(7,8-dimethoxy-1-methyl-2-oxo-2,3-dihydro-1H-1,4-benzodiazepin-5-yl)phenyl]acetamide]
inhibition at 10 µM (PDE2; [1]): 38%

CCN1C(=O)CN=C(c2cccc(C#N)c2)c2cc(OC)c(OC)cc21 [Compound 4k, 3-(1-ethyl-7,8-dimethoxy-2-oxo-2,3-dihydro-1H-1,4-benzodiazepin-5-yl)benzonitrile]
inhibition at 10 µM (PDE2): 75.9%

COc1cc2c(cc1OC)N(C)C(=O)CN=C2c1cccc(-c2ccc(C#N)cc2)c1 [Compound 6m, 3′-(7,8-dimethoxy-1-methyl-2-oxo-2,3-dihydro-1H-1,4-benzodiazepin-5-yl)-1,1′-biphenyl-4-carbonitrile]
inhibition at 10 µM (PDE2): 82.3% | PDE4 percentage inhibition at 10 μM (PDE4): 37.3%

COc1cc2c(cc1OC)N(C)C(=O)CN=C2c1cccc(C#CCN2CCCCC2)c1 [Compound 6c, 7,8-dimethoxy-1-methyl-5-[3-(3-piperidin-1-ylprop-1-ynyl)phenyl]-1,3-dihydro-2H-1,4-benzodiazepin-2-one]
IC50 (PDE2): 4.3 µM

COc1cccc2c1C(c1ccccc1)=NCC(=O)N2 [Compound 28d, 6-methoxy-5-phenyl-1,3-dihydro-2H-1,4-benzodiazepin-2-one]
inhibition at 10 µM (PDE2): 4.7%

COc1cc2c(cc1OC)N(Cc1ccc(Cl)c(Cl)c1)C(=O)CN=C2c1cccc(C#N)c1 [Compound 4d, 3-[1-(3,4-chlorobenzyl)-7,8-dimethoxy-2-oxo-2,3-dihydro-1H-1,4-benzodiazepin-5-yl]-benzonitrile]
PDE2 percentage inhibition at 10 μM (PDE2; [1]): 47.6%

COc1cc2c(cc1OC)N(C)C(=O)CN=C2c1cccc(CNCc2ccccc2)c1 [Compound 17m, 5-[3-(benzylaminomethyl)phenyl]-7,8-dimethoxy-1-methyl-1,3-dihydro-2H-1,4-benzodiazepin-2-one hydrochloride]
IC50 (PDE2): 4.8 µM

[9-(3-aminoethynyl)-7,8-dimethoxy-1-methyl-2-oxo-2,3-dihydro-1H-1,4-benzodiazepin-5-yl]benzonitrile [Compound 25f]
PDE2 percentage inhibition at 10 μM (PDE2; [1]): 0%

CCOC(=O)CN1C(=O)CN=C(c2cccc(C(N)=O)c2)c2cc(OC)c(OC)cc21 [Compound 5i, Ethyl{5-[3-(aminocarbonyl)phenyl]-7,8-dimethoxy-2-oxo-2,3-dihydro-1H-1,4-benzodiazepin-1-yl}acetate]
inhibition at 10 µM (PDE2): 0%

COc1cc2c(c(-c3ccccc3)c1OC)C(c1cccc(C#N)c1)=NCC(=O)N2C [Compound 25b, 3-(7,8-dimethoxy-1-methyl-2-oxo-6-phenyl-2,3-dihydro-1H-1,4-benzodiazepin-5-yl)benzonitrile]
inhibition at 10 µM (PDE2): 22.9%

COc1cc2c(cc1OC)N(C)C(=O)CN=C2c1cccc(C(C)=O)c1 [Compound 17e, 5-(3-acetylphenyl)-7,8-dimethoxy-1-methyl-1,3-dihydro-1,4-benzodiazepin-2-one]
IC50 (PDE2): 6.7 µM

COc1cc2c(cc1OC)N(C)C(=O)CN=C2c1cccc(C(=O)NC(C)C)c1 [Compound 36a, 3-(7,8-dimethoxy-1-methyl-2-oxo-2,3-dihydro-1H-1,4-benzodiazepin-5-yl)N-isopropylbenzamide]
inhibition at 10 µM (PDE2; [1]): 75.9%
